Measured values reported in patent US20110135754A1, “CONTROL OF DISEASES IN CROPS” (priority 2008, published 2011).

Experiments:
[1] = at 20 c; in water; cited from earlier work
rust = test: Field spray of vanadyl citrate solution on an oats crop to control rust; type: in vivo; conditions: oats crop for stock feed, about 2 hectares, sprayed at approx. 150 mm height, approx. 7.5 grams of elemental vanadium per hectare; adjacent untreated crop failed to give any yield due to rust
Experimental: A solution containing vanadium in the form of vanadyl citrate was prepared. The solution was sprayed onto about 2 hectares of an oats crop for stock feed, that was in early stages of growth where the crop was approximately 150 mm in height. The spray was applied in a manner such that approximately 7.5 grams of elemental vanadium per hectare, was applied to the crop.

SMILES | solubility [1] | crop yield (cuttings delivered) of treated crop (rust)
[O]=[V](=[O])[O][V](=[O])=[O] [Vanadium Pentoxide, vanadium pentoxide] | 0.8 g/100 ml | 
O=C([O-])CC(O)(CC(=O)[O-])C(=O)[O-].[O]=[V+2] [vanadyl citrate] |  | delivered three cuttings
